# Laboratory results from patent US20230348454A1, “COMPOUNDS AS MODULATORS OF BIS-PHOSPHOGLYCERATE MUTASE FOR THE TREATMENT OF SICKLE CELL DISEASE” (Genzyme Corporation, priority 2020, published 2023).
# Molecular target: T1, hBPGM (Homo sapiens, UniProt P07738)
# T1 sequence (P07738 1-259): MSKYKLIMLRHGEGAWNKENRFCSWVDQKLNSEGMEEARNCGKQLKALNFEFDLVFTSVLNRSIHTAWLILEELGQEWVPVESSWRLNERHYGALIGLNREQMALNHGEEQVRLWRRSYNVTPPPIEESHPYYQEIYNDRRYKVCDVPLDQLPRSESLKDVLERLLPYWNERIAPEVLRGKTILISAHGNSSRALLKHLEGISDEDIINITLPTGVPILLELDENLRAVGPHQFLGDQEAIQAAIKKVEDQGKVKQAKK
# Test: BPGM synthase assay
# Format: biochemical
# Settings: Table 3; read-out: hBPGM Synthase IC50
# Procedure: The following materials were used in this assay: deionized water; Bisphosphoglycerate mutase (BPGM; Standard Buffer: 50 mM Tris, 0.01% Tween 20, pH 7.4); BPGM Reaction Buffer (50 mM Tris, 0.01% Tween 20, 3.23 mM KH2PO4, pH 7.4); dithiothreitol (DTT; Stock solution: 100 mM in Standard Buffer); 384-Well Black Assay Plate (Corning, P/N 3575); DMSO; BPGM Stock Solution (500 nM in BPGM Standard Buffer); Glyceraldehyde 3-phosphate dehydrogenase (GAPDH; Stock Solution: 40 U/mL in 20 mM Tris-HCL Buffer with 20% Glycerol, 1 mM EDTA, 1 mM DTT); Glyceraldehyde 3-phosphate (GAP; Stock Solution: 20 mM in BPGM Standard Buffer); 3-PG Stock Solution (500 μM in BPGM Standard Buffer); Nicotinamide adenine dinucleotide (NAD; Stock Solution: 50 mM in BPGM Standard Buffer); Koningic Acid (1 mM Stock in DMSO); Resazurin Stock Solution (10 mM in DMSO); Diaphorase Stock Solution (40 U/mL in BPGM Standard Buffer); DTT Reaction Buffer (1 mM DTT in BPGM Reaction Buffer); Enzyme Solution (5 nM BPGM, 0.4 U/mL GAPDH in DTT Reaction Buffer); GAPDH Solution (0.4 U/mL GAPDH in DTT Reaction Buffer); Substrate Solution (2 mM NAD, 20 μM 3PG, 800 μM GAP in DTT Reaction Buffer); and Resazurin Solution (5 U/mL Diaphorase, 500 μM Resazurin in BPGM Standard Buffer).
# To the assay plate was added Enzyme Solution (20 uL) to columns 2-22 and 24 of the assay plate. To columns 1 and 23 was added GAPDH Solution (20 uL). A separate compound plate was prepared at the desired concentrations and all wells were normalized with 5% DMSO. The compound plate was incubated for 30 minutes at RT. Next, the substrate solution (20 μL) was dispensed to all reaction wells and the plate was incubated for 60 minutes at RT. Koningic acid (1 μL) was added and the plate was incubated for 10 minutes at RT. During this time period, the NADH fluorescence was read at ex: 360/em: 460. Next, Resazurin Solution (10 μL) was added to all reaction wells and the plate was incubated for 30 minutes at RT. The resorufin fluorescence was then read at ex:544/em:590.
row,Structure (SMILES),IC50 [nM]
1,Cc1nc(COc2ncccn2)sc1-c1cccc(-c2cc(F)c(O)c(C#N)c2)n1 [compound 12],256

# Same assay, conditions: Table 6; read-out: huBPGM: synthase Enzyme IC50
row,Structure (SMILES),IC50 [nM]
1,COCC1CCCN1C(=O)OCc1nc(C)c(-c2cccc(-c3cc(F)c4nn[nH]c4c3F)n2)s1 (stereo not drawn) [Example 40],44
2,Cc1nc(CNC(=O)C(C)(C)C)sc1-c1cccc(-c2cc(F)c(O)c(F)c2F)c1 [Example 146],13000
3,Cc1nc(COC(=O)N2CCC(O)C2)sc1-c1csc(-c2cc(F)c(O)c(F)c2F)n1 (stereo not drawn) [Example 79],2400
4,Cc1nc(C)c(-c2cnn(-c3cc(F)c4[nH]nnc4c3F)c2)s1 [Example 37],13000
5,COC(=O)NCc1nc(C)c(-c2cccc(-c3cc(F)c4nn[nH]c4c3F)n2)s1 [Example 122],33
6,Cc1nc(COC(=O)N2CCC(O)C2)sc1-c1csc(-c2cc(F)c3[nH]nnc3c2F)n1 (stereo not drawn) [Example 75],440
7,Cc1nc(COC(=O)N2CCC(N)C2)sc1-c1cccc(-c2cc(F)c(O)c(F)c2F)n1 (stereo not drawn) [Example 29],5700
8,Cc1nc(Cc2ccccn2)sc1-c1cccc(-c2ccc(C(=O)NS(=O)(=O)c3ccccc3)cc2)c1 [Example 211],740
9,Cc1nc(COc2ncccn2)sc1-c1nc(-c2cc(O)c(C#N)c(F)c2)cs1 [Example 71],300
10,Cc1nc(COc2ncccn2)sc1-c1cccc(-c2ccc(-c3n[nH]c(=O)o3)cc2)n1 [Example 161],> 25000
11,COC1CCN(C(=O)OCc2nc(C)c(-c3cccc(-c4cc(F)c5nn[nH]c5c4F)n3)s2)C1 (stereo not drawn) [Example 39],41
12,Cc1nc(C)c(-c2csc(-c3cc(F)c4[nH]nnc4c3)n2)s1 [Example 114],1200
13,Cc1nc(COc2ccccn2)sc1-c1cccc(-c2cc(F)c3nn[nH]c3c2F)n1 [Example 110],160
14,Cc1nc(C)c(-c2csc(-c3cc(F)c(O)c(F)c3F)n2)s1 [Example 119],2900
15,Cc1nc(COc2ncccn2)sc1-c1cccc(-c2ccc(C#N)c(O)c2F)n1 [Example 105],220
16,COC(C)(C)COCc1nc(C)c(-c2cccc(-c3cc(F)c4nn[nH]c4c3F)n2)s1 [Example 227],21

row,Structure (SMILES),IC50 [nM]
1,Cc1nc(COc2ccccn2)sc1-c1cccc(-c2cc(F)c(O)c(C#N)c2)n1 [Example 121],3300
2,COc1c(F)cc(-c2cccc(-c3sc(COc4ncccn4)nc3C)n2)c(F)c1C#N [Example 228],> 25000
3,Cc1nc(COC(C)C(=O)N(C)C)sc1-c1cccc(-c2cc(F)c3nn[nH]c3c2F)n1 (stereo not drawn) [Example 60],55
4,Cc1nc(COC(=O)N2CCC(O)CC2)sc1-c1cccc(-c2cc(F)c3nn[nH]c3c2F)n1 [Example 47],25
5,Cc1nc(C)c(CCOc2cc(F)c3nn[nH]c3c2F)s1 [Example 222],> 25000
6,Cc1nc(COc2ncccn2)sc1-c1cccc(-c2cc(F)c(O)c(C#N)c2)n1 [compound 12],260
7,Cc1nc(COC(=O)N(C)C)sc1-c1nc(-c2cc(F)c3nn[nH]c3c2F)cs1 [Example 44],25
8,Cc1nc(COC(=O)N2CCC(O)C2)sc1-c1cccc(-c2cc(F)c(O)c(F)c2F)n1 (stereo not drawn) [Example 35],600
9,Cc1nc(COc2ncccn2)sc1-c1cccc(-c2cc(F)c3nnn(C)c3c2)n1 [Example 150],> 99000
10,Cc1nc(CNC(=O)C2CN(C)C2)sc1-c1csc(-c2cc(F)c(O)c(F)c2F)n1 [Example 83],> 25000
11,Cc1nc(CNC(=O)N(C)C)sc1-c1cccc(-c2cc(F)c(O)c(F)c2F)n1 [Example 28],1600
12,Cc1nc(CN/C(=N/C#N)N(C)C)sc1-c1cccc(-c2cc(F)c3nn[nH]c3c2F)n1 [Example 45],48
13,Cc1nc(COc2ncccn2)sc1-c1cccc(-c2cc(F)c(O)c(C#N)c2F)n1 [Example 231],87
14,Cc1nc(COc2ncccn2)sc1-c1ccnc(-c2cc(F)c(O)c(C#N)c2)n1 [Example 69],79
15,Cc1nc(COc2ccccn2)sc1-c1csc(-c2cc(F)c(F)c(O)c2F)n1 [Example 55],220
16,Cc1nc(CNC(=O)c2ccn(C)n2)sc1-c1csc(-c2cc(F)c(O)c(F)c2F)n1 [Example 106],330
